# Results as given in PubChem BioAssay AID330 (DTP/NCI, 2004).
# Where “and” joins values, the source holds several entries; their conditions need not be identical. Equal entries are not always repeated. Inconclusive results and toxic doses are left out.
# System: P388 leukemia ip, CD2F1 mice, survival T/C
# Assay: NCI In Vivo Anticancer Drug Screen. Data for tumor model P388 Leukemia (intraperitoneal) in CD2F1 (CDF1) mice
# Settings: endpoint: median survival time, higher = longer survival
# Summary of the method: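 Mice carrying the transplanted tumor received test compound or vehicle. Survival was recorded in each group, and the value is the treated-group measurement divided by that of the vehicle-treated control group.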
# [1] = dose: 50.0 mg/kg/injection, schedule: Q01DX005 (ip), vehicle: Klucel (hydroxypropylcellulose) (HPC)
# [2] = dose: 100.0 mg/kg/injection, schedule: Q01DX005 (ip), vehicle: Klucel (hydroxypropylcellulose) (HPC)
# [3] = dose: 200.0 mg/kg/injection, schedule: Q01DX005 (ip), vehicle: Klucel (hydroxypropylcellulose) (HPC)
# [4] = dose: 50.0 mg/kg/injection, schedule: Q01DX009 (ip), vehicle: saline with Tween-80
# [5] = dose: 60.0 mg/kg/injection, schedule: Q01DX005 (ip), vehicle: Klucel (hydroxypropylcellulose) (HPC)
# [6] = dose: 120.0 mg/kg/injection, schedule: Q01DX005 (ip), vehicle: Klucel (hydroxypropylcellulose) (HPC)
# [7] = dose: 20.0 mg/kg/injection, schedule: Q01DX009 (ip), vehicle: saline with Tween-80
# [8] = dose: 50.0 mg/kg/injection, schedule: Q01DX005 (ip), vehicle: saline with Tween-80
# [9] = dose: 100.0 mg/kg/injection, schedule: Q01DX005 (ip), vehicle: saline with Tween-80
# [10] = dose: 200.0 mg/kg/injection, schedule: Q01DX005 (ip), vehicle: saline with Tween-80
structure (smiles),measurement,setting,value
Nc1ccn(C2OC(COP(=O)(O)O)C(O)C2O)c(=O)n1 (configuration not stated),T/C,"dose: 100.0 mg/kg/injection, schedule: Q04DX003 (ip), vehicle: saline with Tween-80",150 % of control
same,T/C,"dose: 264.0 mg/kg/injection, schedule: Q04DX003 (ip), vehicle: saline with Tween-80",181 % of control
same,T/C,"dose: 400.0 mg/kg/injection, schedule: Q04DX003 (ip), vehicle: saline with Tween-80",166 % of control and 177 % of control
same,T/C,"dose: 600.0 mg/kg/injection, schedule: Q04DX003 (ip), vehicle: saline with Tween-80",209 % of control
COC(=O)c1c2c(nc3ccccc13)-c1ccccc1C(C)(C)C2,T/C,[1],92 % of control
same,T/C,[2],95 % of control
same,T/C,[3],96 % of control
CCOP(=S)(OCC)Oc1cc(C)nc(C(C)C)n1,T/C,[4],112 % of control
same,T/C,"dose: 100.0 mg/kg/injection, schedule: Q01DX009 (ip), vehicle: saline with Tween-80",111 % of control
Cc1cc(=O)n2c(nc3cc(C(=O)c4ccccc4)ccc32)s1,T/C,"dose: 50.0 mg/kg/injection, schedule: Q01DX001 (ip), vehicle: Klucel (hydroxypropylcellulose) (HPC)",101 % of control
same,T/C,"dose: 100.0 mg/kg/injection, schedule: Q01DX001 (ip), vehicle: Klucel (hydroxypropylcellulose) (HPC)",98 % of control
same,T/C,"dose: 200.0 mg/kg/injection, schedule: Q01DX001 (ip), vehicle: Klucel (hydroxypropylcellulose) (HPC)",100 % of control
N#CC1=C(C#N)C(=O)C(Br)=C(Br)C1=O,T/C,"dose: 12.5 mg/kg/injection, schedule: Q01DX005 (ip), vehicle: Klucel + Tween-80",108 % of control
same,T/C,"dose: 25.0 mg/kg/injection, schedule: Q01DX005 (ip), vehicle: Klucel + Tween-80",106 % of control
same,T/C,"dose: 50.0 mg/kg/injection, schedule: Q01DX005 (ip), vehicle: Klucel + Tween-80",108 % of control
ClCCN(CCCl)c1ccc(/C=N/Nc2ccnc3ccccc23)cc1,T/C,"dose: 0.39 mg/kg/injection, schedule: Q01DX009 (ip), vehicle: DMSO",92 % of control
same,T/C,"dose: 0.78 mg/kg/injection, schedule: Q01DX009 (ip), vehicle: DMSO",87 % of control
same,T/C,"dose: 1.56 mg/kg/injection, schedule: Q01DX009 (ip), vehicle: DMSO",90 % of control
COC(=O)C1=C(O)/C(=C\c2ccccc2)NC1=O,T/C,[1],101 % of control
same,T/C,[2],108 % of control
same,T/C,[3],104 % of control
O=Cc1cc(C=O)c2ccc(=O)[nH]c2n1,T/C,[5],109 % of control
same,T/C,[6],114 % of control
CN(C)c1ccc(/C=C/c2ccnc3c(O)ccc(O)c23)cc1,T/C,"dose: 12.5 mg/kg/injection, schedule: Q01DX009 (ip), vehicle: saline with Tween-80",91 % of control
same,T/C,"dose: 25.0 mg/kg/injection, schedule: Q01DX009 (ip), vehicle: saline with Tween-80",94 % of control
same,T/C,[4],92 % of control
Cc1nc2c3c4c(sc3nc(C)n2n1)CCCC4,T/C,[1],105 % of control
same,T/C,[2],100 % of control
same,T/C,[3],98 % of control
NC(CC(=O)CCl)C(=O)O (configuration not stated),T/C,"dose: 5.0 mg/kg/injection, schedule: Q01DX009 (ip), vehicle: saline with Tween-80",154 % of control
same,T/C,"dose: 6.25 mg/kg/injection, schedule: Q04DX003 (ip), vehicle: saline",150 % of control
same,T/C,"dose: 10.0 mg/kg/injection, schedule: Q01DX009 (ip), vehicle: saline with Tween-80",168 % of control
same,T/C,"dose: 12.5 mg/kg/injection, schedule: Q04DX003 (ip), vehicle: saline",166 % of control
same,T/C,[7],159 % of control
same,T/C,"dose: 50.0 mg/kg/injection, schedule: Q04DX003 (ip), vehicle: saline",176 % of control
Cc1ccc2nc3c(nc2c1)n(-c1ccccc1)c(=O)n3-c1cccc(Cl)c1,T/C,[8],90 % of control
same,T/C,[9],100 % of control
same,T/C,[10],101 % of control
COCCOCCOCCOCCOCCOCCOCCOCCOCCOCCOCCOCCOCCOCCOC(=O)CCn1cc(F)c(=O)[nH]c1=O,T/C,"dose: 34.0 mg/kg/injection, schedule: Q04DX002 (ip), vehicle: saline",97 % of control
same,T/C,"dose: 68.0 mg/kg/injection, schedule: Q04DX002 (ip), vehicle: saline",111 % of control
same,T/C,"dose: 136.0 mg/kg/injection, schedule: Q04DX002 (ip), vehicle: saline",102 % of control
same,T/C,"dose: 272.0 mg/kg/injection, schedule: Q04DX002 (ip), vehicle: saline",100 % of control
COc1cc(/C=C/c2ccc(OC)c(O)c2)cc(OC)c1,T/C,"dose: 6.25 mg/kg/injection, schedule: Q01DX005 (ip), vehicle: Klucel (hydroxypropylcellulose) (HPC)",108 % of control
same,T/C,"dose: 12.5 mg/kg/injection, schedule: Q01DX005 (ip), vehicle: Klucel (hydroxypropylcellulose) (HPC)",103 % of control
same,T/C,"dose: 25.0 mg/kg/injection, schedule: Q01DX005 (ip), vehicle: Klucel (hydroxypropylcellulose) (HPC)",99 % of control
same,T/C,[1],119 % of control and 94 % of control
same,T/C,[2],98 % of control
same,T/C,[3],94 % of control
O=S(=O)(/C=C/c1ccc(F)cc1)Cc1ccccc1,T/C,[8],92 % of control
same,T/C,[9],92 % of control
same,T/C,[10],90 % of control
COc1ccc(Cl)cc1Cn1ccnc1,T/C,"dose: 60.0 mg/kg/injection, schedule: Q01DX005 (ip), vehicle: saline with Tween-80",97 % of control
same,T/C,"dose: 120.0 mg/kg/injection, schedule: Q01DX005 (ip), vehicle: saline with Tween-80",103 % of control
COc1cccc(C(=O)C(CN(C)C)CN(C)C)c1,T/C,"dose: 3.12 mg/kg/injection, schedule: Q01DX009 (ip), vehicle: saline",100 % of control and 105 % of control
same,T/C,"dose: 3.13 mg/kg/injection, schedule: Q01DX009 (ip), vehicle: saline",106 % of control
same,T/C,"dose: 6.25 mg/kg/injection, schedule: Q01DX009 (ip), vehicle: saline",103 % of control and 115 % of control and 97 % of control
same,T/C,"dose: 12.5 mg/kg/injection, schedule: Q01DX009 (ip), vehicle: saline",108 % of control and 112 % of control and 123 % of control
same,T/C,"dose: 25.0 mg/kg/injection, schedule: Q01DX009 (ip), vehicle: saline",103 % of control and 123 % of control
CCCCOC(=O)NC(=O)c1cc2cc(Cl)ccc2oc1=O,T/C,[8],95 % of control
same,T/C,[9],88 % of control
CC1(C)CCCC2(C)C1CCC13OC1(C=O)C(C=O)=CCC23 (configuration not stated),T/C,"dose: 1.25 mg/kg/injection, schedule: Q01DX005 (ip), vehicle: saline + alcohol",99 % of control
same,T/C,"dose: 2.5 mg/kg/injection, schedule: Q01DX005 (ip), vehicle: saline + alcohol",98 % of control
same,T/C,"dose: 5.0 mg/kg/injection, schedule: Q01DX005 (ip), vehicle: saline + alcohol",99 % of control
same,T/C,"dose: 10.0 mg/kg/injection, schedule: Q01DX005 (ip), vehicle: saline + alcohol",99 % of control
same,T/C,"dose: 20.0 mg/kg/injection, schedule: Q01DX005 (ip), vehicle: saline + alcohol",104 % of control
O=P(O/C(=C\c1ccccc1)c1ccccc1)(c1ccccc1)c1ccccc1,T/C,[5],91 % of control
same,T/C,[6],90 % of control
same,T/C,"dose: 240.0 mg/kg/injection, schedule: Q01DX005 (ip), vehicle: Klucel (hydroxypropylcellulose) (HPC)",90 % of control
O=C(NO)/C(CC(=O)c1ccccc1O)=N\O,T/C,"dose: 60.0 mg/kg/injection, schedule: Q01DX005 (ip), vehicle: saline",100 % of control
same,T/C,"dose: 120.0 mg/kg/injection, schedule: Q01DX005 (ip), vehicle: saline",111 % of control
same,T/C,"dose: 240.0 mg/kg/injection, schedule: Q01DX005 (ip), vehicle: saline",103 % of control
O=C1c2cc(Oc3ccccc3)c(S(=O)(=O)O)c(S(=O)(=O)O)c2C(=O)c2c(O)ccc(O)c21,T/C,"dose: 25.0 mg/kg/injection, schedule: Q01DX005 (ip), vehicle: saline",104 % of control
same,T/C,"dose: 50.0 mg/kg/injection, schedule: Q01DX005 (ip), vehicle: saline",107 % of control
same,T/C,"dose: 100.0 mg/kg/injection, schedule: Q01DX005 (ip), vehicle: saline",94 % of control
same,T/C,"dose: 200.0 mg/kg/injection, schedule: Q01DX005 (ip), vehicle: saline",94 % of control
CC1=C[S+](c2ccccc2)c2cccc3cc4ccccc4c1c23 (configuration not stated),T/C,"dose: 0.62 mg/kg/injection, schedule: Q04DX003 (ip), vehicle: saline",100 % of control
same,T/C,"dose: 1.25 mg/kg/injection, schedule: Q04DX003 (ip), vehicle: saline",100 % of control
same,T/C,"dose: 2.5 mg/kg/injection, schedule: Q04DX003 (ip), vehicle: saline",104 % of control
CC1CN1S(=O)(=O)N1CC1C (configuration not stated),T/C,"dose: 11.0 mg/kg/injection, schedule: Q04DX003 (ip), vehicle: saline with Tween-80",110 % of control
same,T/C,"dose: 16.5 mg/kg/injection, schedule: Q04DX003 (ip), vehicle: saline with Tween-80",155 % of control
same,T/C,[7],209 % of control
same,T/C,"dose: 25.0 mg/kg/injection, schedule: Q04DX003 (ip), vehicle: saline with Tween-80",195 % of control
same,T/C,"dose: 37.5 mg/kg/injection, schedule: Q04DX003 (ip), vehicle: saline with Tween-80",270 % of control
same,T/C,"dose: 40.0 mg/kg/injection, schedule: Q01DX009 (ip), vehicle: saline with Tween-80",172 % of control
O=C(O)CCCc1ccc2c(c1)OCO2,T/C,[8],113 % of control
same,T/C,[9],98 % of control
same,T/C,[10],106 % of control
